Test results reported in US8802597B2, “Herbicidal pyrimidines” (E I du Pont de Nemours and Company, priority 2003, dated 2014).
Read-outs that look alike come from different tables or passages of the source.

Tests used:
Type in all cases: in vivo
[1] = system: umbrella sedge (Cyperus difformis); assay: Test B flooded paddy test; conditions: Cyperus difformis, Flood, 1000 g ai/ha; scale 0 to 100; read-out: Plant response rating, Sedge, Umbrella
How it was run: (§1)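 Visual injury scoring (0 = no effect, 100 = complete control) versus controls made 13 to 15 days after treatment in the greenhouse. Test species were grown in flooded paddy to the 2-leaf stage: rice, barnyardgrass, umbrella sedge, duck salad.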

[2] = system: barnyardgrass (Echinochloa crus-galli); assay: Test B flooded paddy test; conditions: Echinochloa crus-galli, Flood, 1000 g ai/ha; scale 0 (no effect) to 100 (complete control); read-out: Plant response rating, Barnyardgrass
How it was run: as §1

[3] = system: rice (Oryza sativa); assay: Test B flooded paddy test; conditions: Oryza sativa, Flood, 1000 g ai/ha; scale 0 to 100; read-out: Plant response rating, Rice
How it was run: as §1

[4] = system: duck salad (Heteranthera limosa); assay: Test B flooded paddy test; conditions: Heteranthera limosa, Flood, 1000 g ai/ha; scale 0 to 100; read-out: Plant response rating, Ducksalad
How it was run: as §1

[5] = system: morningglory (Ipomoea coccinea); assay: Test B pre/postemergence; conditions: Ipomoea; for pest or weed control at 125 g/ha: 125 g ai/ha; for pest or weed control at 500 g/ha: 500 g ai/ha
How it was run: (§2)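 Formulation: non-phytotoxic solvent blend with surfactant. Timing: preemergence on seeds, postemergence at 1- to 4-leaf (2–18 cm). Assessment: visual, 0–100 against controls, after 13–15 days' greenhouse growth.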

[6] = system: velvetleaf (Abutilon theophrasti); assay: Test B pre/postemergence; conditions: Abutilon theophrasti; for pest or weed control at 125 g/ha: 125 g ai/ha; for pest or weed control at 500 g/ha: 500 g ai/ha
How it was run: as §2

[7] = system: corn (Zea mays); assay: Test B pre/postemergence; conditions: Zea mays
How it was run: as §2

[8] = system: barnyardgrass (Echinochloa crus-galli); assay: Test B pre/postemergence; conditions: Echinochloa crus-galli; for pest or weed control at 125 g/ha: 125 g ai/ha; for pest or weed control at 500 g/ha: 500 g ai/ha
How it was run: as §2

[9] = system: cocklebur (Xanthium strumarium); assay: Test B pre/postemergence; conditions: Xanthium strumarium; for pest or weed control at 125 g/ha: 125 g ai/ha; for pest or weed control at 500 g/ha: 500 g ai/ha
How it was run: as §2

[10] = system: Surinam grass (Brachiaria decumbens); assay: Test B pre/postemergence; conditions: Urochloa decumbens; for pest or weed control at 125 g/ha: 125 g ai/ha; for pest or weed control at 500 g/ha: 500 g ai/ha
How it was run: as §2

[11] = system: giant foxtail (Setaria faberii); assay: Test B pre/postemergence; conditions: Setaria faberi; for pest or weed control at 125 g/ha: 125 g ai/ha; for pest or weed control at 500 g/ha: 500 g ai/ha
How it was run: as §2

[12] = system: lambsquarters (Chenopodium album); assay: Test B pre/postemergence; conditions: Chenopodium album; for pest or weed control at 125 g/ha: 125 g ai/ha; for pest or weed control at 500 g/ha: 500 g ai/ha
How it was run: as §2

[13] = system: wheat (Triticum aestivum); assay: Test B pre/postemergence; conditions: Triticum aestivum; for plant injury at 125 g/ha: 125 g ai/ha; for plant injury at 500 g/ha: 500 g ai/ha
How it was run: as §2

[14] = system: crabgrass (Digitaria sanguinalis); assay: Test B pre/postemergence; conditions: Digitaria sanguinalis; for pest or weed control at 125 g/ha: 125 g ai/ha; for pest or weed control at 500 g/ha: 500 g ai/ha
How it was run: as §2

[15] = system: pigweed (Amaranthus retroflexus); assay: Test B pre/postemergence; conditions: Amaranthus retroflexus; for pest or weed control at 125 g/ha: 125 g ai/ha; for pest or weed control at 500 g/ha: 500 g ai/ha
How it was run: as §2

[16] = system: wild oat (Avena fatua); assay: Test B postemergence; conditions: Avena fatua, post-emergence
How it was run: as §2

[17] = system: blackgrass (Alopecurus myosuroides); assay: Test B postemergence; conditions: Alopecurus myosuroides, post-emergence
How it was run: as §2

Nc1nc(C2CC2)nc(C(=O)OCc2ccccc2)c1Br [Compound 22, phenylmethyl 6-amino-5-bromo-2-cyclopropyl-4-pyrimidinecarboxylate]
10%: Corn plant response rating (crop injury, 0 = no effect, 100 = complete kill) at 125 g/ha ([7]; pre-emergence, Preemergence, 125 g ai/ha, scale 0 to 100 (0 no effect, 100 complete control)) | plant injury at 125 g/ha ([13]; pre-emergence, Preemergence, scale 0 to 100 (0 no effect, 100 complete control), read-out: Plant response rating, Wheat) | pest or weed control at 125 g/ha ([16]; 125 g ai/ha, scale 0 to 100 (0 no effect, 100 complete control), read-out: Oat, Wild plant response rating)
80%: pest or weed control at 1000 g/ha [2] | Corn plant response rating (crop injury, 0 = no effect, 100 = complete kill) at 500 g/ha ([7]; post-emergence, Postemergence, 500 g ai/ha, scale 0 to 100) | pest or weed control at 500 g/ha ([9]; pre-emergence, Preemergence, scale 0 to 100 (0 no effect, 100 complete control), read-out: Cocklebur plant response rating) | pest or weed control at 125 g/ha ([10]; post-emergence, Postemergence, scale 0 to 100 (0 no effect, 100 complete control), read-out: Surinam Grass plant response rating) | pest or weed control at 500 g/ha ([11]; post-emergence, Postemergence, scale 0 to 100, read-out: Plant response rating, Foxtail, Giant) | pest or weed control at 500 g/ha ([15]; pre-emergence, Preemergence, scale 0 to 100 (0 no effect, 100 complete control), read-out: Pigweed plant response rating) | pest or weed control at 500 g/ha ([17]; 500 g ai/ha, scale 0 to 100, read-out: Plant response rating, Blackgrass)
0%: pest or weed control at 125 g/ha ([8]; pre-emergence, Preemergence, scale 0 to 100 (0 no effect, 100 complete control), read-out: Plant response rating, Barnyardgrass) | pest or weed control at 125 g/ha ([10]; pre-emergence, Preemergence, scale 0 to 100 (0 no effect, 100 complete control), read-out: Plant response rating, Surinam Grass) | pest or weed control at 125 g/ha ([11]; pre-emergence, Preemergence, scale 0 to 100 (0 no effect, 100 complete control), read-out: Plant response rating, Foxtail, Giant) | plant injury at 125 g/ha ([13]; post-emergence, Postemergence, scale 0 to 100 (0 no effect, 100 complete control), read-out: Wheat plant response rating)
30%: pest or weed control at 125 g/ha ([6]; pre-emergence, Preemergence, scale 0 to 100 (0 no effect, 100 complete control), read-out: Plant response rating, Velvetleaf)
90%: pest or weed control at 1000 g/ha [4] | pest or weed control at 125 g/ha ([5]; post-emergence, Postemergence, scale 0 to 100 (0 no effect, 100 complete control), read-out: Morningglory plant response rating) | pest or weed control at 500 g/ha ([8]; post-emergence, Postemergence, scale 0 to 100, read-out: Plant response rating, Barnyardgrass) | pest or weed control at 500 g/ha ([10]; post-emergence, Postemergence, scale 0 to 100, read-out: Plant response rating, Surinam Grass) | pest or weed control at 500 g/ha ([14]; post-emergence, Postemergence, scale 0 to 100, read-out: Plant response rating, Crabgrass)
100%: pest or weed control at 500 g/ha ([5]; post-emergence, Postemergence, scale 0 to 100, read-out: Plant response rating, Morningglory) | pest or weed control at 125 g/ha ([5]; pre-emergence, Preemergence, scale 0 to 100 (0 no effect, 100 complete control), read-out: Plant response rating, Morningglory) | pest or weed control at 500 g/ha ([5]; pre-emergence, Preemergence, scale 0 to 100 (0 no effect, 100 complete control), read-out: Morningglory plant response rating) | pest or weed control at 125 g/ha ([6]; post-emergence, Postemergence, scale 0 to 100 (0 no effect, 100 complete control), read-out: Velvetleaf plant response rating) | pest or weed control at 500 g/ha ([6]; post-emergence, Postemergence, scale 0 to 100, read-out: Plant response rating, Velvetleaf) | pest or weed control at 500 g/ha ([6]; pre-emergence, Preemergence, scale 0 to 100 (0 no effect, 100 complete control), read-out: Velvetleaf plant response rating) | pest or weed control at 125 g/ha ([9]; post-emergence, Postemergence, scale 0 to 100 (0 no effect, 100 complete control), read-out: Cocklebur plant response rating) | pest or weed control at 500 g/ha ([9]; post-emergence, Postemergence, scale 0 to 100, read-out: Plant response rating, Cocklebur) | pest or weed control at 125 g/ha ([12]; post-emergence, Postemergence, scale 0 to 100 (0 no effect, 100 complete control), read-out: Lambsquarters plant response rating) | pest or weed control at 500 g/ha ([12]; post-emergence, Postemergence, scale 0 to 100, read-out: Plant response rating, Lambsquarters) | pest or weed control at 500 g/ha ([12]; pre-emergence, Preemergence, scale 0 to 100 (0 no effect, 100 complete control), read-out: Lambsquarters plant response rating) | pest or weed control at 500 g/ha ([14]; pre-emergence, Preemergence, scale 0 to 100 (0 no effect, 100 complete control), read-out: Crabgrass plant response rating) | pest or weed control at 125 g/ha ([15]; post-emergence, Postemergence, scale 0 to 100 (0 no effect, 100 complete control), read-out: Pigweed plant response rating) | pest or weed control at 500 g/ha ([15]; post-emergence, Postemergence, scale 0 to 100, read-out: Plant response rating, Pigweed)
70%: pest or weed control at 125 g/ha ([8]; post-emergence, Postemergence, scale 0 to 100 (0 no effect, 100 complete control), read-out: Barnyardgrass plant response rating) | pest or weed control at 125 g/ha ([11]; post-emergence, Postemergence, scale 0 to 100 (0 no effect, 100 complete control), read-out: Foxtail, Giant plant response rating) | pest or weed control at 125 g/ha ([12]; pre-emergence, Preemergence, scale 0 to 100 (0 no effect, 100 complete control), read-out: Plant response rating, Lambsquarters) | plant injury at 500 g/ha ([13]; post-emergence, Postemergence, scale 0 to 100, read-out: Plant response rating, Wheat)
50%: pest or weed control at 1000 g/ha [1] | pest or weed control at 125 g/ha ([9]; pre-emergence, Preemergence, scale 0 to 100 (0 no effect, 100 complete control), read-out: Plant response rating, Cocklebur) | plant injury at 500 g/ha ([13]; pre-emergence, Preemergence, scale 0 to 100 (0 no effect, 100 complete control), read-out: Wheat plant response rating) | pest or weed control at 125 g/ha ([14]; post-emergence, Postemergence, scale 0 to 100 (0 no effect, 100 complete control), read-out: Crabgrass plant response rating)
20%: plant injury at 125 g/ha ([7]; post-emergence, Postemergence, 125 g ai/ha, scale 0 to 100 (0 no effect, 100 complete control), read-out: Corn plant response rating) | pest or weed control at 500 g/ha ([8]; pre-emergence, Preemergence, scale 0 to 100 (0 no effect, 100 complete control), read-out: Barnyardgrass plant response rating) | pest or weed control at 500 g/ha ([10]; pre-emergence, Preemergence, scale 0 to 100 (0 no effect, 100 complete control), read-out: Surinam Grass plant response rating) | pest or weed control at 500 g/ha ([11]; pre-emergence, Preemergence, scale 0 to 100 (0 no effect, 100 complete control), read-out: Foxtail, Giant plant response rating) | pest or weed control at 125 g/ha ([14]; pre-emergence, Preemergence, scale 0 to 100 (0 no effect, 100 complete control), read-out: Plant response rating, Crabgrass)
60%: plant injury at 1000 g/ha [3] | pest or weed control at 125 g/ha ([15]; pre-emergence, Preemergence, scale 0 to 100 (0 no effect, 100 complete control), read-out: Plant response rating, Pigweed) | pest or weed control at 500 g/ha ([16]; 500 g ai/ha, scale 0 to 100, read-out: Plant response rating, Oat, Wild) | pest or weed control at 125 g/ha ([17]; 125 g ai/ha, scale 0 to 100 (0 no effect, 100 complete control), read-out: Blackgrass plant response rating)
